In PubChem BioAssay (NCI):
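Test compounds were applied to cells in 96-well plates for 48 hours at 5 doses. GI50 is the concentration that inhibits growth by half. Definition used: TGI = concentration required for complete inhibition of growth.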

Legend:
Assay in all cases: NCI anticancer screen, dose series, 48 h
SNB-75 CNS = system: SNB-75 CNS
UO-31 renal = system: UO-31 renal
A498 renal = system: A498 renal
COLO 205 colon = system: COLO 205 colon
MALME-3M melanoma = system: MALME-3M melanoma
HCC-2998 colon = system: HCC-2998 colon
K-562 leukemia = system: K-562 leukemia
SF-268 CNS = system: SF-268 CNS
HT29 colon = system: HT29 colon
LOX IMVI melanoma = system: LOX IMVI melanoma
HCT-15 colon = system: HCT-15 colon
786-0 renal = system: 786-0 renal
OVCAR-3 ovarian = system: OVCAR-3 ovarian
OVCAR-5 ovarian = system: OVCAR-5 ovarian
SK-OV-3 ovarian = system: SK-OV-3 ovarian
OVCAR-8 ovarian = system: OVCAR-8 ovarian
MDA-MB-435 = system: MDA-MB-435
M14 melanoma = system: M14 melanoma
HOP-92 NSCLC = system: HOP-92 NSCLC
U251 CNS = system: U251 CNS
NCI/ADR-RES ovarian = system: NCI/ADR-RES ovarian
SW-620 colon = system: SW-620 colon
RPMI-8226 leukemia = system: RPMI-8226 leukemia
RXF 393 renal = system: RXF 393 renal
OVCAR-4 ovarian = system: OVCAR-4 ovarian
NCI-H23 lung = system: NCI-H23 lung
UACC-257 melanoma = system: UACC-257 melanoma
PC-3 prostate = system: PC-3 prostate
SK-MEL-28 melanoma = system: SK-MEL-28 melanoma
IGROV1 ovarian = system: IGROV1 ovarian

`CCCCCCn1c(O)c(N=Nc2nc(-c3cc4ccccc4oc3=O)cs2)c2ccccc21` was tested, and the GI50 (SNB-75 CNS) was 12 µM, the TGI (SNB-75 CNS) was 24.8 µM and the GI50 (UO-31 renal) was 14.1 µM. It also gave a TGI (UO-31 renal) of 27.1 µM, a GI50 (A498 renal) of 19.7 µM and a TGI (A498 renal) of 33.9 µM. The GI50 (COLO 205 colon) was 11 µM, the TGI (COLO 205 colon) was 24.9 µM and the GI50 (MALME-3M melanoma) was 16.9 µM. The TGI (MALME-3M melanoma) was 30.6 µM, the GI50 (HCC-2998 colon) was 16.2 µM and the TGI (HCC-2998 colon) was 29.7 µM. For the same compound, the GI50 (K-562 leukemia) was 15.2 µM, the TGI (K-562 leukemia) was 43.8 µM and the GI50 (SF-268 CNS) was 17.3 µM. The TGI (SF-268 CNS) was 38.6 µM, the GI50 (HT29 colon) was 11.6 µM and the TGI (HT29 colon) was 24.4 µM. For the same compound, the GI50 (LOX IMVI melanoma) was 15.5 µM, the TGI (LOX IMVI melanoma) was 28.9 µM and the GI50 (HCT-15 colon) was 15.2 µM. For the same compound, the TGI (HCT-15 colon) was 28.7 µM, the GI50 (786-0 renal) was 17.5 µM and the TGI (786-0 renal) was 31.4 µM. It also gave a GI50 (OVCAR-3 ovarian) of 16.9 µM, a TGI (OVCAR-3 ovarian) of 30.8 µM and a GI50 (OVCAR-5 ovarian) of 17.1 µM. The TGI (OVCAR-5 ovarian) was 30.8 µM, the GI50 (SK-OV-3 ovarian) was 15.2 µM and the TGI (SK-OV-3 ovarian) was 29.1 µM. For the same compound, the GI50 (OVCAR-8 ovarian) was 17.1 µM, the TGI (OVCAR-8 ovarian) was 32.1 µM and the GI50 (MDA-MB-435) was 17 µM. It also gave a TGI (MDA-MB-435) of 31.2 µM, a GI50 (M14 melanoma) of 15 µM and a TGI (M14 melanoma) of 28.8 µM. It also gave a GI50 (HOP-92 NSCLC) of 11 µM, a TGI (HOP-92 NSCLC) of 23.9 µM and a GI50 (U251 CNS) of 15.8 µM. The TGI (U251 CNS) was 29.9 µM, the GI50 (NCI/ADR-RES ovarian) was 15.1 µM and the TGI (NCI/ADR-RES ovarian) was 28.9 µM. For the same compound, the GI50 (SW-620 colon) was 16.6 µM, the TGI (SW-620 colon) was 31.3 µM and the GI50 (RPMI-8226 leukemia) was 17.2 µM. The TGI (RPMI-8226 leukemia) was 53.1 µM, the GI50 (RXF 393 renal) was 8.91 µM and the TGI (RXF 393 renal) was 21.1 µM. For the same compound, the GI50 (OVCAR-4 ovarian) was 14.2 µM, the TGI (OVCAR-4 ovarian) was 27.5 µM and the GI50 (NCI-H23 lung) was 12.2 µM. The TGI (NCI-H23 lung) was 24.6 µM, the GI50 (UACC-257 melanoma) was 17.4 µM and the TGI (UACC-257 melanoma) was 31.7 µM. For the same compound, the GI50 (PC-3 prostate) was 10.6 µM, the TGI (PC-3 prostate) was 23.5 µM and the GI50 (SK-MEL-28 melanoma) was 13.9 µM. For the same compound, the TGI (SK-MEL-28 melanoma) was 26.8 µM and the GI50 (IGROV1 ovarian) was 17.2 µM.
